Data reported in article PMC4503722, “Novel Phenotypic Outcomes Identified for a Public Collection of Approved Drugs from a Publicly Accessible Panel of Assays” (PLoS ONE, 2015).
Read-outs that look alike come from different tables or passages of the source.

How the values were obtained:
Test in all cases: cells
[1] = tested on: endothelial tube formation in co-cultures of ECFCs and ADSCs treated with VEGF; assay type: cell-based, human
[2] = tested on: nuclear β-catenin in C2C12 cells; assay type: cell-based
[3] = tested on: INS-1E cells; assay type: cell-based, rat
[4] = tested on: NCI-H716 cells; assay type: cell-based, Human
[5] = tested on: SW480; assay type: cell-based
[6] = tested on: HCT116; assay type: cell-based
[7] = tested on: HT-29; assay type: cell-based
[8] = tested on: RKO; assay type: cell-based
[9] = tested on: DLD-1; assay type: cell-based
[10] = tested on: HeLa cells; assay type: cell-based; settings: read-out: CellCycle G2/M
[11] = tested on: Colo320; assay type: cell-based
[12] = tested on: SNU-C1; assay type: cell-based
[13] = tested on: HCT116 cells treated with a GSK3β inhibitor; assay type: cell-based
[14] = Homo sapiens; read-out: Anti-Angiogenesis
[15] = Mus musculus, C2C12, S2 Table, module primary assay, 20 / 20.1 codes per legend, read-out: Wnt Pathway
[16] = Rattus norvegicus, INS-1E; read-out: Insulin Secretion
[17] = Homo sapiens, NCI-H716; read-out: GLP 1 Secretion
[18] = Homo sapiens, SW480, basal, SW480, read-out: Basal_Viability ATP SW480
[19] = Homo sapiens, HCT-116, basal, HCT116, read-out: Basal_Viability ATP HCT116
[20] = Homo sapiens; basal; HT-29; read-out: Basal_Viability ATP HT-29
[21] = Homo sapiens; basal; RKO; read-out: Basal_Viability ATP RKO
[22] = Homo sapiens, DLD-1, basal, DLD-1, read-out: Basal_Viability ATP DLD-1
[23] = Homo sapiens, HeLa, S2 Table, HeLa, 20 = no response at highest concentration
[24] = Homo sapiens; basal; Colo 320; read-out: Basal_Viability ATP Colo 320
[25] = Homo sapiens, SNU-C1, basal, SNU-C1, read-out: Basal_Viability ATP SNU-C1
[26] = Homo sapiens, HCT-116, HCT116 pretreated with GSK3b inhibitor, read-out: GSK3b inh pretreated_Viability ATP HCT116

CCCCC(CC)CNC(=N)NC(=N)NCCCCCCNC(=N)NC(=N)NCC(CC)CCCC (stereo not drawn) [alexidine] was tested, and the IC50 [1, 14] was 0.408 µM, the EC50 [2, 15] was > 10 µM and the EC50 [3, 16] was > 10 µM. The EC50 [4, 17] was > 10 µM, the IC50 [5, 18] was 0.333 µM and the IC50 [6, 19] was 0.71 µM. For the same compound, the IC50 [7, 20] was 0.0302 µM, the IC50 [8, 21] was 0.223 µM and the IC50 [9, 22] was 0.0197 µM. For the same compound, the EC50 [10, 23] was > 10 µM, the IC50 [11, 24] was 0.0041 µM and the IC50 [12, 25] was 0.0941 µM. The IC50 [13, 26] was 0.396 µM.
CC(=O)O[C@@]12CO[C@@H]1C[C@H](O)[C@@]1(C)C(=O)[C@H](O)C3=C(C)[C@@H](OC(=O)[C@H](O)[C@@H](NC(=O)OC(C)(C)C)c4ccccc4)C[C@@](O)([C@@H](OC(=O)c4ccccc4)[C@H]21)C3(C)C [docetaxel] was tested, and the IC50 ([1]; Homo sapiens, IC50 / EC50; endothelial tube area, ADSC/ECFC co-culture; read-out: Anti-Angiogenesis) was 0.001 µM, the EC50 ([2]; Mus musculus, C2C12, IC50 / EC50, C2C12 beta-catenin translocation, read-out: Wnt Pathway) was 0.0652 µM and the EC50 ([3]; Rattus norvegicus; IC50 / EC50; INS-1E; read-out: Insulin Secretion) was > 10 µM. The EC50 ([4]; Homo sapiens; IC50 / EC50; NCI-H716; read-out: GLP 1 Secretion) was > 10 µM, the IC50 ([5]; Homo sapiens, SW480, basal, read-out: Basal_Viability ATP SW480) was 0.001 µM and the IC50 ([6]; Homo sapiens, HCT-116, basal, read-out: Basal_Viability ATP HCT116) was 0.001 µM. For the same compound, the IC50 ([7]; Homo sapiens, HT-29; read-out: Basal_Viability ATP HT-29) was 0.001 µM, the IC50 ([8]; Homo sapiens, RKO; read-out: Basal_Viability ATP RKO) was 0.001 µM and the IC50 ([9]; Homo sapiens, DLD-1, basal, read-out: Basal_Viability ATP DLD-1) was 8.2 µM. The EC50 ([10]; Homo sapiens, HeLa, IC50 / EC50, HeLa) was 0.00335 µM, the IC50 ([11]; Homo sapiens, COLO 320; read-out: Basal_Viability ATP Colo 320) was 0.001 µM and the IC50 ([12]; Homo sapiens, SNU-C1, basal, read-out: Basal_Viability ATP SNU-C1) was > 20 µM. It also gave an IC50 ([13]; Homo sapiens, HCT-116, GSK3b inhibitor pretreated, read-out: GSK3b inh pretreated_Viability ATP HCT116) of 0.001 µM.
With O=Cc1ccc(O)c(O)c1O [2,3,4-Trihydroxybenzaldehyde] the IC50 ([1]; Homo sapiens, read-out: Anti-Angiogenesis) was > 10 µM, the EC50 ([2]; Mus musculus, C2C12, read-out: Wnt Pathway) was > 10 µM and the EC50 ([3]; Rattus norvegicus, INS-1E, read-out: Insulin Secretion) was > 10 µM. The EC50 ([4]; Homo sapiens, NCI-H716, read-out: GLP 1 Secretion) was > 10 µM, the IC50 ([5]; Homo sapiens, SW480, read-out: Basal_Viability ATP SW480) was 11.3 µM and the IC50 ([6]; Homo sapiens, HCT-116, read-out: Basal_Viability ATP HCT116) was > 20 µM. For the same compound, the IC50 ([7]; Homo sapiens, HT-29, read-out: Basal_Viability ATP HT-29) was > 20 µM, the IC50 ([8]; Homo sapiens, RKO, read-out: Basal_Viability ATP RKO) was 6.23 µM and the IC50 ([9]; Homo sapiens, DLD-1, read-out: Basal_Viability ATP DLD-1) was > 20 µM. The EC50 ([10]; Homo sapiens, HeLa) was > 10 µM, the IC50 ([11]; Homo sapiens, COLO 320, read-out: Basal_Viability ATP Colo 320) was 9.08 µM and the IC50 ([12]; Homo sapiens, SNU-C1, read-out: Basal_Viability ATP SNU-C1) was > 20 µM. For the same compound, the IC50 ([13]; Homo sapiens, HCT-116, read-out: GSK3b inh pretreated_Viability ATP HCT116) was 0.141 µM.
In the case of O=[N+]([O-])c1ccc(Oc2ccc(N=C=S)cc2)cc1 [Cantrodifene], the IC50 ([1]; IC50 / EC50; endothelial tube area, ADSC/ECFC co-culture; read-out: Anti-Angiogenesis) is reported as 3.72 µM, the EC50 ([2]; IC50 / EC50, C2C12 beta-catenin translocation, read-out: Wnt Pathway) is reported as > 10 µM and the EC50 ([3]; IC50 / EC50; INS-1E; read-out: Insulin Secretion) is reported as > 10 µM. For the same compound, the EC50 ([4]; IC50 / EC50; NCI-H716; read-out: GLP 1 Secretion) was > 10 µM, the IC50 ([5]; basal, read-out: Basal_Viability ATP SW480) was 1.63 µM and the IC50 ([6]; basal, read-out: Basal_Viability ATP HCT116) was 2.77 µM. The IC50 ([7]; basal; read-out: Basal_Viability ATP HT-29) was 1.07 µM, the IC50 ([8]; basal; read-out: Basal_Viability ATP RKO) was 2.34 µM and the IC50 ([9]; basal, read-out: Basal_Viability ATP DLD-1) was 2.1 µM. The EC50 ([10]; IC50 / EC50, HeLa) was > 10 µM, the IC50 ([11]; basal; read-out: Basal_Viability ATP Colo 320) was 1.46 µM and the IC50 ([12]; basal, read-out: Basal_Viability ATP SNU-C1) was 4.33 µM. It also gave an IC50 ([13]; GSK3b inhibitor pretreated, read-out: GSK3b inh pretreated_Viability ATP HCT116) of 1.47 µM.
In the case of Oc1ccc([C@@H]2CNCc3c2ccc(O)c3O)cc1O [Zelandopam], the IC50 ([1]; read-out: Anti-Angiogenesis) is reported as > 10 µM, the EC50 ([2]; read-out: Wnt Pathway) is reported as > 10 µM and the EC50 ([3]; read-out: Insulin Secretion) is reported as > 10 µM. For the same compound, the EC50 ([4]; read-out: GLP 1 Secretion) was 5.95 µM, the IC50 ([5]; read-out: Basal_Viability ATP SW480) was > 20 µM and the IC50 ([6]; read-out: Basal_Viability ATP HCT116) was > 20 µM. For the same compound, the IC50 ([7]; read-out: Basal_Viability ATP HT-29) was > 20 µM, the IC50 ([8]; read-out: Basal_Viability ATP RKO) was 0.0332 µM and the IC50 ([9]; read-out: Basal_Viability ATP DLD-1) was > 20 µM. The EC50 [10] was > 10 µM, the IC50 ([11]; read-out: Basal_Viability ATP Colo 320) was 0.466 µM and the IC50 ([12]; read-out: Basal_Viability ATP SNU-C1) was > 20 µM. For the same compound, the IC50 ([13]; read-out: GSK3b inh pretreated_Viability ATP HCT116) was 0.188 µM.
With OC[C@H]1O[C@@H](n2cnc3c(S)ncnc32)[C@H](O)[C@@H]1O [Thioinosine] the IC50 [1, 14] was 1.42 µM, the EC50 [2, 15] was > 10 µM and the EC50 [3, 16] was > 10 µM. The EC50 [4, 17] was > 10 µM, the IC50 [5, 18] was 0.0287 µM and the IC50 [6, 19] was 0.0286 µM. It also gave an IC50 [7, 20] of 0.118 µM, an IC50 [8, 21] of 0.0144 µM and an IC50 [9, 22] of 0.063 µM. The EC50 [10, 23] was > 10 µM, the IC50 [11, 24] was 1.06 µM and the IC50 [12, 25] was 2.19 µM. It also gave an IC50 [13, 26] of 0.504 µM.
